Source: patent publication US5811558A, “Process for the resolution of etodolac using glucamine derivatives” (priority 1994, dated 1998)
Counter-ions that a name gives are not always drawn.

How the values were obtained:
[1] = open randomised two way crossover pharmacokinetic study in healthy male volunteers, single oral dose; type: in vivo, human (healthy male volunteers); conditions: for half-life: t1/2
Procedure: (§1) An open randomised two way crossover study was conducted on a group of 13 healthy male volunteers to investigate the pharmacokinetics of the meglumine salt of (S)-etodolac and racemic etodolac (Lodine®); 11 volunteers received both treatments. Doses used were […] of the meglumine salt (equivalent to 100 mg of the free acid) and 200 mg of racemic etodolac. Blood samples were taken regularly.
The results of the pharmacokinetic study are shown in Table 1 and in FIGS. 1 and 2 below.
FIG. 1 is a graph of plasma concentration (μg/ml) of the (S)enantiomer for all volunteers receiving a single oral dose of 200 mg of racemic etodolac.
FIG. 2 is a graph of plasma concentration (μ/ml) of the (S) enantiomer for all volunteers receiving a single oral dose of 168 mg of the meglumine salt of (S)-etodolac (100 mg free acid equivalent).

[2] = design: species or system human (healthy male volunteers); conditions: human, in vivo
Procedure: as §1
Etodolac had no affect on vital signs, ECGs, physical examinations or on any clinical laboratory assessments, including serum biochemistry, haematology and urinalysis, when administered in either form.

[3] = free acid, Lee et al, J. Pharm. Sci. (1988); cited from earlier work

## CCc1cccc2c3c([nH]c12)C(CC)(CC(=O)O)OCC3 (racemic) [racemic etodolac]
[1]; human, in vivo
  t1/2 comparison in words: substantially eguivalent
[1]; human, in vivo, po
  half-life: 7.14 h
[1]; human, in vivo, po, tmax
  tmax: 1.67 h
[2]
  effect on vital signs, ECGs, physical examinations or clinical laboratory assessments (serum biochemistry, haematology, urinalysis): no affect
[3]
  stability on heating under acidic conditions: leads to its decomposition

## CCc1cccc2c3c([nH]c12)[C@@](CC)(CC(=O)O)OCC3 [(R)-etodolac]
[1]; human, in vivo
  t1/2 comparison in words: substantially eguivalent
[1]; human, in vivo, po
  plasma concentrations of (R)-etodolac relative to (S)-etodolac: about 10 times higher
  half-life: ~7 h
[1]; human, in vivo, po, tmax
  tmax: 1.73 h

## CCc1cccc2c3c([nH]c12)[C@](CC)(CC(=O)O)OCC3 [(S)-etodolac]
[1]; human, in vivo
  t1/2 comparison in words: markedly lower
[1]; human, in vivo, po
  tmax: 1.23 h
  half-life: ~2 h

## CCc1cccc2c3c([nH]c12)[C@](CC)(CC(=O)O)OCC3 [Meglumine salt of (S)-etodolac]
[1]; human, in vivo
  peak plasma concentrations in words: significantly higher
[1]; human, in vivo, po
  tmax: 0.333 h
[1]; meglumine salt dosed orally
  appearance in plasma in words: appears in the plasma very rapidly
